We go through twelve compounds from paper PMC7531004, “Discovery of gramicidin A analogues with altered activities by multidimensional screening of a one-bead-one-compound library” (Nature Communications, 2020).

Where a SMILES comes first, the peptide text is derived from it. [ ]: non-standard residue; d: D form. The star is where a group is joined. NHCH2CH2OH = OCCN*; For = O=C*

Series [1] has as its system Streptococcus pyogenes SSI-9. As to the kind of experiment: Antibacterial activity assay of bead-derived peptides (three concentrations). The class given is cell-based. Set-up: key: +++: inhibition by the 640-fold diluted peptide solution; ++: inhibition by the 160-fold diluted solution; +: inhibition by the 40-fold diluted solution; -: no inhibition. To be noted: S. pyogenes, bead-derived peptide solution, three concentrations. The procedure, abridged:
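First, each peptide stock was diluted 4- and 16-fold in DMSO; next, the three solutions were mixed with S. pyogenes SSI-9 suspension (2 × 10^5 CFU) in cation-adjusted Mueller Hinton Broth plus 5% laked horse blood; finally, plates stood 18 h at 37 °C before checking for grown-cell precipitation.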

The conditions of series [2]: cell viability/%. In outline: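 Peptide stocks diluted 250× in growth medium; P388 cells 1 × 10^4 cells/mL final; 37 °C, 5% CO2, 92 h. WST-1 + 1-methoxy PMS, 4 h, A415. Output: % viability.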
Series [3] is described as follows: H+/Na+ transport assay of bead-derived peptides (one-point).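 Also: relative to parent gramicidin A activity set to 1.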 The class given is biochemical. The arrangement: key: relative activity; mean of two control wells = 1.00. To be noted: bead-derived peptide solution, EYPC/EYPG LUVs. The procedure, abridged: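 Values are normalized fluorescence, with Triton X-100 defining 100% and untreated LUVs 0%, and the two control wells averaging 1.00. Vesicles carried 1.0 mM pyranine and included egg yolk phosphatidylglycerol. Peptides were incubated with them 30 min at room temperature.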

In the case of `CC(C)C[C@@H](NC(=O)[C@H](Cc1c[nH]c2ccccc12)NC(=O)[C@@H](CC(C)C)NC(=O)[C@H](Cc1c[nH]c2ccccc12)NC(=O)[C@H](NC(=O)[C@H](Cc1c[nH]c2ccccc12)NC(=O)[C@@H](CC(C)C)NC(=O)[C@@H](NC(=O)[C@H](NC(=O)[C@H](C)NC(=O)[C@H](NC(=O)[C@H](C)NC(=O)CNC(=O)[C@@H](NC=O)C(C)C)C(C)C)[C@H](C)O)C(C)C)C(C)C)C(=O)N[C@@H](Cc1c[nH]c2ccccc12)C(=O)NCCO` [compound 2085] (For-VGA[dV]A[dT]V[dL]W[dV]W[dL]W[dL]W-NHCH2CH2OH), the antibacterial activity entry in series [1] is recorded as “-”. Moreover, the viability – broadly, a per cent measure of how many cells are alive, often set against a control – in series [2] stood at 100%. For the same compound, the “H+/Na+ transport activity normalized against the value of 1 (1.00)” value (“H+/Na+ transport activity normalized” below) in series [3] was 1.20.

In the case of `CC(C)C[C@@H](NC(=O)[C@H](C)NC(=O)[C@H](NC(=O)[C@H](C)NC(=O)CNC(=O)[C@@H](NC=O)C(C)C)C(C)C)C(=O)N[C@H](C(=O)N[C@H](CC(C)C)C(=O)N[C@@H](Cc1c[nH]c2ccccc12)C(=O)N[C@H](CC(C)C)C(=O)N[C@@H](Cc1c[nH]c2ccccc12)C(=O)N[C@@H](C(=O)N[C@@H](Cc1c[nH]c2ccccc12)C(=O)N[C@@H](C(=O)N[C@@H](Cc1c[nH]c2ccccc12)C(=O)NCCO)C(C)C)[C@H](C)O)C(C)C` [compound 2117] (For-VGA[dV]A[dL]V[dL]W[dL]W[dT]W[dV]W-NHCH2CH2OH), the antibacterial activity entry in series [1] is on record as “+”. The viability in series [2] came to 100%. For the same compound, in series [3], the “H+/Na+ transport activity normalized” value was 1.15.

Take `CNC(=O)C[C@@H](NC(=O)[C@@H](NC(=O)[C@H](NC(=O)[C@H](C)NC(=O)[C@@H](CC(C)C)NC(=O)[C@H](C)NC(=O)CNC(=O)[C@@H](NC=O)C(C)C)C(C)C)C(C)C)C(=O)N[C@@H](Cc1c[nH]c2ccccc12)C(=O)N[C@@H](C(=O)N[C@@H](Cc1c[nH]c2ccccc12)C(=O)N[C@H](CC(C)C)C(=O)N[C@@H](Cc1c[nH]c2ccccc12)C(=O)N[C@H](CC(C)C)C(=O)N[C@@H](Cc1c[nH]c2ccccc12)C(=O)NCCO)C(C)C` [compound 2118] (For-VGA[dL]A[dV]V[dD](NHMe)W[dV]W[dL]W[dL]W-NHCH2CH2OH): the antibacterial activity entry in series [1] is listed as “-”. The same compound had a viability in series [2] of 100%. In series [3], the “H+/Na+ transport activity normalized” value amounted to 1.26.

For the compound `CC(C)C[C@@H](NC(=O)[C@H](C)NC(=O)[C@H](NC(=O)[C@H](C)NC(=O)CNC(=O)[C@@H](NC=O)C(C)C)[C@H](C)O)C(=O)N[C@H](C(=O)N[C@H](CC(C)C)C(=O)N[C@@H](Cc1c[nH]c2ccccc12)C(=O)N[C@@H](C(=O)N[C@@H](Cc1c[nH]c2ccccc12)C(=O)N[C@@H](C(=O)N[C@@H](Cc1c[nH]c2ccccc12)C(=O)N[C@@H](C(=O)N[C@@H](Cc1c[nH]c2ccccc12)C(=O)NCCO)C(C)C)C(C)C)[C@H](C)O)C(C)C` [compound 2139] (For-VGA[dT]A[dL]V[dL]W[dT]W[dV]W[dV]W-NHCH2CH2OH), in series [1], the antibacterial activity result was “-”. The viability in series [2] came to 100%. Also, the “H+/Na+ transport activity normalized” value in series [3] is recorded as 1.05.

`CC(C)C[C@@H](NC(=O)[C@H](C)NC(=O)CNC(=O)[C@@H](NC=O)C(C)C)C(=O)N[C@@H](C)C(=O)N[C@@H](C(=O)N[C@H](C(=O)N[C@@H](C(=O)N[C@@H](Cc1c[nH]c2ccccc12)C(=O)N[C@@H](C(=O)N[C@@H](Cc1c[nH]c2ccccc12)C(=O)N[C@H](CC(C)C)C(=O)N[C@@H](Cc1c[nH]c2ccccc12)C(=O)N[C@@H](C(=O)N[C@@H](Cc1c[nH]c2ccccc12)C(=O)NCCO)C(C)C)C(C)C)[C@H](C)O)C(C)C)C(C)C` [compound 2154] (For-VGA[dL]A[dV]V[dT]W[dV]W[dL]W[dV]W-NHCH2CH2OH): the antibacterial activity result in series [1] is “-”. The compound further returned a viability in series [2] of 100%. In series [3], the “H+/Na+ transport activity normalized” value is given as 1.09.

Regarding `CNC(=O)C[C@@H](NC(=O)[C@@H](NC(=O)[C@H](NC(=O)[C@H](C)NC(=O)[C@@H](CC(C)C)NC(=O)[C@H](C)NC(=O)CNC(=O)[C@@H](NC=O)C(C)C)C(C)C)C(C)C)C(=O)N[C@@H](Cc1c[nH]c2ccccc12)C(=O)N[C@H](CC(C)C)C(=O)N[C@@H](Cc1c[nH]c2ccccc12)C(=O)N[C@@H](C(=O)N[C@@H](Cc1c[nH]c2ccccc12)C(=O)N[C@@H](C(=O)N[C@@H](Cc1c[nH]c2ccccc12)C(=O)NCCO)C(C)C)C(C)C` [compound 2195] (For-VGA[dL]A[dV]V[dD](NHMe)W[dL]W[dV]W[dV]W-NHCH2CH2OH), the antibacterial activity entry in series [1] is “-”. This compound also displayed a viability in series [2] of 100%. For the same compound, the “H+/Na+ transport activity normalized” value in series [3] amounted to 1.34.

Turning to `CC(C)C[C@@H](NC(=O)[C@H](C)NC(=O)CNC(=O)[C@@H](NC=O)C(C)C)C(=O)N[C@@H](C)C(=O)N[C@@H](C(=O)N[C@H](C(=O)N[C@@H](C(=O)N[C@@H](Cc1c[nH]c2ccccc12)C(=O)N[C@@H](C(=O)N[C@@H](Cc1c[nH]c2ccccc12)C(=O)N[C@@H](C(=O)N[C@@H](Cc1c[nH]c2ccccc12)C(=O)N[C@H](CC(C)C)C(=O)N[C@@H](Cc1c[nH]c2ccccc12)C(=O)NCCO)C(C)C)[C@H](C)O)C(C)C)C(C)C)C(C)C` [compound 2207] (For-VGA[dL]A[dV]V[dV]W[dT]W[dV]W[dL]W-NHCH2CH2OH), the antibacterial activity result in series [1] is “-”. In series [2], this compound gave a viability of 100%. For the same compound, in series [3], the “H+/Na+ transport activity normalized” value is 1.18.

For the compound `CC(C)C[C@@H](NC(=O)[C@H](C)NC(=O)CNC(=O)[C@@H](NC=O)C(C)C)C(=O)N[C@@H](C)C(=O)N[C@@H](C(=O)N[C@H](C(=O)N[C@H](CC(C)C)C(=O)N[C@@H](Cc1c[nH]c2ccccc12)C(=O)N[C@@H](C(=O)N[C@@H](Cc1c[nH]c2ccccc12)C(=O)N[C@@H](C(=O)N[C@@H](Cc1c[nH]c2ccccc12)C(=O)N[C@H](CC(C)C)C(=O)N[C@@H](Cc1c[nH]c2ccccc12)C(=O)NCCO)C(C)C)[C@H](C)O)C(C)C)C(C)C` [compound 2236] (For-VGA[dL]A[dV]V[dL]W[dT]W[dV]W[dL]W-NHCH2CH2OH), the antibacterial activity result in series [1] is recorded as “+”. In series [2], this compound displayed a viability of 100%. Also, in series [3], the “H+/Na+ transport activity normalized” value stood at 1.03.

As for `CC(C)C[C@@H](NC(=O)[C@H](C)NC(=O)CNC(=O)[C@@H](NC=O)C(C)C)C(=O)N[C@@H](C)C(=O)N[C@@H](C(=O)N[C@H](C(=O)N[C@@H](C(=O)N[C@@H](Cc1c[nH]c2ccccc12)C(=O)N[C@@H](C(=O)N[C@@H](Cc1c[nH]c2ccccc12)C(=O)N[C@H](CC(C)C)C(=O)N[C@@H](Cc1c[nH]c2ccccc12)C(=O)N[C@H](CC(C)C)C(=O)N[C@@H](Cc1c[nH]c2ccccc12)C(=O)NCCO)C(C)C)[C@H](C)O)C(C)C)C(C)C` [compound 2290] (For-VGA[dL]A[dV]V[dT]W[dV]W[dL]W[dL]W-NHCH2CH2OH), the antibacterial activity result in series [1] was “-”. In series [2], this compound returned a viability of 100%. In series [3], the “H+/Na+ transport activity normalized” value is reported as 1.14.

For the compound `CC(C)C[C@@H](NC(=O)[C@H](C)NC(=O)CNC(=O)[C@@H](NC=O)C(C)C)C(=O)N[C@@H](C)C(=O)N[C@H](CC(C)C)C(=O)N[C@H](C(=O)N[C@H](CC(C)C)C(=O)N[C@@H](Cc1c[nH]c2ccccc12)C(=O)N[C@H](CC(C)C)C(=O)N[C@@H](Cc1c[nH]c2ccccc12)C(=O)N[C@@H](C(=O)N[C@@H](Cc1c[nH]c2ccccc12)C(=O)N[C@@H](C(=O)N[C@@H](Cc1c[nH]c2ccccc12)C(=O)NCCO)C(C)C)[C@H](C)O)C(C)C` [compound 2346] (For-VGA[dL]A[dL]V[dL]W[dL]W[dT]W[dV]W-NHCH2CH2OH), in series [1], the antibacterial activity entry is recorded as “+”. The viability in series [2] amounted to 100%. For the same compound, the “H+/Na+ transport activity normalized” value in series [3] is recorded as 1.03.

`CNC(=O)C[C@@H](NC(=O)[C@H](Cc1c[nH]c2ccccc12)NC(=O)[C@H](NC(=O)[C@H](Cc1c[nH]c2ccccc12)NC(=O)[C@@H](CC(C)C)NC(=O)[C@H](Cc1c[nH]c2ccccc12)NC(=O)[C@H](NC(=O)[C@@H](NC(=O)[C@@H](CC(C)C)NC(=O)[C@H](C)NC(=O)[C@H](NC(=O)[C@H](C)NC(=O)CNC(=O)[C@@H](NC=O)C(C)C)C(C)C)C(C)C)C(C)C)C(C)C)C(=O)N[C@@H](Cc1c[nH]c2ccccc12)C(=O)NCCO` [compound 2425] (For-VGA[dV]A[dL]V[dV]W[dL]W[dV]W[dD](NHMe)W-NHCH2CH2OH): the antibacterial activity result in series [1] was “-”. In series [2], this compound came in with a viability of 100%. Moreover, the “H+/Na+ transport activity normalized” value in series [3] was found to be 1.07.

For the compound `CNC(=O)C[C@@H](NC(=O)[C@H](Cc1c[nH]c2ccccc12)NC(=O)[C@@H](CC(C)C)NC(=O)[C@@H](NC(=O)[C@@H](CC(C)C)NC(=O)[C@H](C)NC(=O)[C@@H](CC(C)C)NC(=O)[C@H](C)NC(=O)CNC(=O)[C@@H](NC=O)C(C)C)C(C)C)C(=O)N[C@@H](Cc1c[nH]c2ccccc12)C(=O)N[C@@H](C(=O)N[C@@H](Cc1c[nH]c2ccccc12)C(=O)N[C@H](CC(C)C)C(=O)N[C@@H](Cc1c[nH]c2ccccc12)C(=O)NCCO)C(C)C` [compound 2432] (For-VGA[dL]A[dL]V[dL]W[dD](NHMe)W[dV]W[dL]W-NHCH2CH2OH), in series [1], the antibacterial activity result was “-”. The compound also registered a viability in series [2] of 100%. Further, the “H+/Na+ transport activity normalized” value in series [3] amounted to 1.06.
